According to US9480259B2, “Pyrazolopyrans having herbicidal and pharmaceutical properties” (BASF SE, priority 2012, dated 2016):

Tests used:
[1] = system: SETFA, AMARE, POLCO, CHEAL, GALAP; assay: Greenhouse herbicidal test, post-emergence, weed panel; type: in vivo; conditions: application rate 1 kg/ha, scale 0 to 100
Text: (§1) The seeds of the test plants were sown separately for each species. For the post-emergence treatment, the test plants were first grown to a height of 2 to 5 cm, depending on the plant habit, and only then treated with the active ingredients which had been suspended or emulsified in water. For this purpose, the test plants were either sown directly and grown in the same containers, or they were first grown separately as seedlings and transplanted into the test containers a few days prior to treatment. Depending on the species, the plants were kept at 10-25° C. or 20-35° C. The test period extended over 8 to 9 days. During this time, the plants were tended, and their response to the individual treatments was evaluated. Evaluation was carried out using a scale from 0 to 100. 100 means no emergence of the plants, or complete destruction of at least the aerial moieties, and 0 means no damage, or normal course of growth. A good herbicidal activity is given at values of at least 70 and a very good herbicidal activity is given at values of at least 85. The plants used in the greenhouse experiments belonged to the following species: [table]

[2] = system: CHEAL (Chenopodium album); assay: Greenhouse herbicidal test, post-emergence, CHEAL; type: in vivo; conditions: application rate 1 kg/ha; for herbicidal activity against CHEAL: scale 0 to 100; for pest or weed control at 1000 g/ha: Chenopodium album, scale 0 to 100, read-out: herbicidal activity against CHEAL
Text: as §1

[3] = system: POLCO (Poligonum convolvulus); assay: Greenhouse herbicidal test, post-emergence, POLCO; type: in vivo; conditions: application rate 1 kg/ha; for herbicidal activity against POLCO: scale 0 to 100; for pest or weed control at 1000 g/ha: Poligonum convolvulus, scale 0 to 100, read-out: herbicidal activity against POLCO
Text: as §1

[4] = system: AMARE (Amaranthus retroflexus); assay: Greenhouse herbicidal test, post-emergence, AMARE; type: in vivo; conditions: application rate 1 kg/ha; for herbicidal activity against AMARE: scale 0 to 100; for pest or weed control at 1000 g/ha: Amaranthus retroflexus, scale 0 to 100, read-out: herbicidal activity against AMARE
Text: as §1

[5] = target: Arabidopsis thaliana SHMT; assay: SHMT activity assay (ED50 SHMT), coupled with N5,N10-CH2-THF dehydrogenase, NADH at 340 nm; type: biochemical
Summary of the method: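 His-tagged SHMT purified on Ni-NTA. NADH formation followed at 340 nm for 30 min; ED50 from inhibition of initial velocity.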

SETFA (Setaria faberi) = assay: Greenhouse herbicidal test, post-emergence, SETFA; type: in vivo; conditions: application rate 1 kg/ha, scale 0 to 100, read-out: herbicidal activity against SETFA
Text: as §1

[6] = Table 2, Arabidopsis thaliana SHMT enzyme assay, values given as upper bounds
[7] = Table 2, values given as upper bounds
[8] = Arabidopsis thaliana SHMT enzyme assay, values given as upper bounds
[9] = inhibition of initial velocity of Arabidopsis thaliana SHMT

Compound	herbicidal activity against at least three of the weeds SETFA, AMARE, POLCO, CHEAL, GALAP [1]	pest or weed control at 1000 g/ha [2] [%]	pest or weed control at 1000 g/ha [3] [%]	pest or weed control at 1000 g/ha [4] [%]	also measured
Cc1n[nH]c2c1C(c1cc(Cl)cc(Cl)c1)(C(C)C)C(C#N)=C(N)O2 (racemic) [Compound 2.112]	good or very good	–	–	–	–
Cc1n[nH]c2c1C(c1cc(-c3nnnn3C)cc(C(F)(F)F)c1)(C1CCC1)C(C#N)=C(N)O2 (racemic) [Compound 2.399]	good or very good	–	–	–	herbicidal activity against CHEAL [2]: very good (a very good herbicidal activity is given at values of at least 85); herbicidal activity against POLCO [3]: good (A good herbicidal activity is given at values of at least 70); herbicidal activity against AMARE [4]: very good (a very good herbicidal activity is given at values of at least 85)
Cc1n[nH]c2c1C(c1cc(Cl)cc(C#N)c1)(C1(F)CC1)C(C#N)=C(N)O2 (racemic) [Compound 2.400]	good or very good	–	–	–	–
Cc1n[nH]c2c1C(c1cc(C#N)cc(C(F)(F)F)c1)(C1(F)CC1)C(C#N)=C(N)O2 (racemic) [Compound 2.404]	good or very good	–	–	–	–
Cc1n[nH]c2c1C(c1cc(C(N)=S)cc(C(F)(F)F)c1)(C1CCC1)C(C#N)=C(N)O2 (racemic) [Compound 2.409]	good or very good	–	–	–	herbicidal activity against CHEAL [2]: very good (a very good herbicidal activity is given at values of at least 85); herbicidal activity against POLCO [3]: very good (a very good herbicidal activity is given at values of at least 85); herbicidal activity against AMARE [4]: good (A good herbicidal activity is given at values of at least 70)
CC(=O)N(C)c1cc(C#N)cc(C2(C3CCC3)C(C#N)=C(N)Oc3[nH]nc(C)c32)c1 (racemic) [Compound 2.414]	good or very good	–	–	–	–
Cc1n[nH]c2c1C(c1cc(C#N)cc(OC(F)(F)F)c1)(C1CCC1)C(C#N)=C(N)O2 (racemic) [Compound 2.417]	good or very good	–	–	–	–
CC(=O)N(C)c1cc(C(F)(F)F)cc(C2(C3(F)CC3)C(C#N)=C(N)Oc3[nH]nc(C)c32)c1 (racemic) [Compound 2.439]	good or very good	–	–	–	–
Cc1n[nH]c2c1C(c1cc(C(F)(F)F)cc(C(F)(F)F)c1)(C1(F)CC1)C(C#N)=C(N)O2 (stereo not shown) [Compound 2.247]	good or very good	≥ 85	≥ 85	≥ 85	EC50 [5, 6]: < 10 nM
Cc1n[nH]c2c1C(c1cc(Cl)cc(C#N)c1)(C1CCC1)C(C#N)=C(N)O2 (stereo not shown) [Compound 2.280]	good or very good	≥ 85	≥ 85	≥ 85	EC50 [5, 6]: < 10 nM
Cc1n[nH]c2c1C(c1cc(Br)cc(C#N)c1)(C1CCC1)C(C#N)=C(N)O2 (stereo not shown) [Compound 2.281]	good or very good	≥ 85	≥ 85	≥ 85	EC50 [5, 6]: < 10 nM
Cc1n[nH]c2c1C(c1cc(C#N)cc(C(F)(F)F)c1)(C1CCC1)C(C#N)=C(N)O2 (stereo not shown) [Compound 2.282]	good or very good	≥ 85	≥ 85	≥ 85	EC50 [5, 6]: < 10 nM
Cc1n[nH]c2c1C(c1cc(C#N)cc(C#N)c1)(C1CCC1)C(C#N)=C(N)O2 (stereo not shown) [Compound 2.283]	good or very good	≥ 85	≥ 85	≥ 85	EC50 [5, 6]: < 100 nM
Cc1n[nH]c2c1C(c1cc(C#N)cc(C#N)c1)(C(C)C)C(C#N)=C(N)O2 (stereo not shown) [Compound 2.335]	good or very good	≥ 85	≥ 85	≥ 85	EC50 [5, 6]: < 10 nM
Cc1n[nH]c2c1C(c1cc(C#N)cc(C(F)(F)F)c1)(C1CC1)C(C#N)=C(N)O2 (stereo not shown) [Compound 2.362]	good or very good	≥ 85	≥ 85	≥ 85	EC50 [5, 6]: < 10 nM
Cc1n[nH]c2c1C(c1cc(OCC#N)cc(C(F)(F)F)c1)(C1CCC1)C(C#N)=C(N)O2 (stereo not shown) [Compound 2.470]	good or very good	≥ 85	–	≥ 85	EC50 [5, 7]: < 100 nM; pest or weed control at 1000 g/ha (SETFA (Setaria faberi)): ≥ 85%
Cc1n[nH]c2c1C(c1cc(C#N)cc(C#N)c1)(C1(F)CCC1)C(C#N)=C(N)O2 (stereo not shown) [Compound 2.569]	good or very good	≥ 85	≥ 85	≥ 85	EC50 [5, 7]: < 100 nM
CCC(=O)N(C)c1cc(C#N)cc(C2(C3CCC3)C(C#N)=C(N)Oc3[nH]nc(C)c32)c1 (stereo not shown) [Compound 2.611]	good or very good	≥ 85	≥ 85	≥ 85	EC50 [5, 7]: < 10 nM
CCCC(=O)N(C)c1cc(C#N)cc(C2(C3CCC3)C(C#N)=C(N)Oc3[nH]nc(C)c32)c1 (stereo not shown) [Compound 2.612]	good or very good	–	–	–	EC50 [5, 7]: < 10 nM
COCC(=O)N(C)c1cc(C#N)cc(C2(C3CCC3)C(C#N)=C(N)Oc3[nH]nc(C)c32)c1 (stereo not shown) [Compound 2.615]	good or very good	≥ 85	≥ 85	≥ 85	EC50 [5, 7]: < 10 nM
COCCOCC(=O)N(C)c1cc(C#N)cc(C2(C3CCC3)C(C#N)=C(N)Oc3[nH]nc(C)c32)c1 (stereo not shown) [Compound 2.616]	good or very good	≥ 85	–	≥ 85	EC50 [5, 7]: < 10 nM
Cc1n[nH]c2c1C(c1cc(C#N)cc(N(C)S(C)(=O)=O)c1)(C1CCC1)C(C#N)=C(N)O2 (stereo not shown) [Compound 2.617]	good or very good	≥ 85	–	≥ 85	EC50 [5, 7]: < 10 nM
Cc1n[nH]c2c1C(c1cc(C#N)cc(N(C)C(=O)CC#N)c1)(C1CCC1)C(C#N)=C(N)O2 (stereo not shown) [Compound 2.635]	good or very good	≥ 85	–	≥ 85	EC50 [5, 7]: < 10 nM
Cc1n[nH]c2c1C(c1cc(C#N)cc(N(C)C(=O)CC#N)c1)(C(C)C)C(C#N)=C(N)O2 (stereo not shown) [Compound 2.662]	good or very good	≥ 85	–	≥ 85	EC50 [5, 8]: < 10 nM; pest or weed control at 1000 g/ha (SETFA (Setaria faberi)): ≥ 85%
Cc1n[nH]c2c1C(c1cc(C#N)cc(N(C)C(=O)CCC#N)c1)(C(C)C)C(C#N)=C(N)O2 (stereo not shown) [Compound 2.663]	good or very good	≥ 70	–	≥ 85	EC50 [5, 8]: < 10 nM; pest or weed control at 1000 g/ha (SETFA (Setaria faberi)): ≥ 85%
Cc1n[nH]c2c1C(c1cc(C#N)cc(N(C)C(=O)CCCC#N)c1)(C(C)C)C(C#N)=C(N)O2 (stereo not shown) [Compound 2.664]	good or very good	≥ 85	–	≥ 85	EC50 [5, 8]: < 10 nM; pest or weed control at 1000 g/ha (SETFA (Setaria faberi)): ≥ 85%
Cc1n[nH]c2c1C(c1cc(C#N)cc(CCCC#N)c1)(C(C)C)C(C#N)=C(N)O2 (stereo not shown) [Compound 2.675]	good or very good	≥ 85	–	≥ 85	EC50 [5, 8]: < 10 nM; pest or weed control at 1000 g/ha (SETFA (Setaria faberi)): ≥ 70%
Cc1n[nH]c2c1C(c1ccc(C(=O)O)s1)(C1CCC1)C(C#N)=C(N)O2 (stereo not shown) [Compound 4.80]	–	–	–	–	EC50 [5, 9]: < 10000 nM
Cc1n[nH]c2c1C(c1cc(-c3ccccc3)cs1)(C(C)C)C(C#N)=C(N)O2 (stereo not shown) [Compound 4.81]	–	–	–	–	EC50 [5, 9]: < 10000 nM
N#CC1=C(N)Oc2[nH]nc(C(F)F)c2C1(c1ccc(Cl)s1)C1CC1 (stereo not shown) [Compound 4.83]	–	–	–	–	EC50 [5, 9]: < 10000 nM
